Laboratory results taken from PubChem BioAssay AID330 (DTP/NCI, 2004).
“And” between values parts separate entries of the source, which are not always exact repeats. Identical values can stand only once. Inconclusive results and toxic doses are left out. The calls were made as follows: active = survival T/C of 150% or more; inactive = T/C below 125% in these data.

System: P388 leukemia ip, CD2F1 mice, survival T/C
Test: NCI In Vivo Anticancer Drug Screen. Data for tumor model P388 Leukemia (intraperitoneal) in CD2F1 (CDF1) mice
Conditions: endpoint: median survival time, higher = longer survival
Outline: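 Mice carrying the transplanted tumor received test compound or vehicle. Survival was recorded in each group, and the value is the treated-group measurement divided by that of the vehicle-treated control group.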

[1] = dose: 50.0 mg/kg/injection, schedule: Q01DX005 (ip), vehicle: saline with Tween-80
[2] = dose: 100.0 mg/kg/injection, schedule: Q01DX005 (ip), vehicle: saline with Tween-80
[3] = dose: 200.0 mg/kg/injection, schedule: Q01DX005 (ip), vehicle: saline with Tween-80
[4] = dose: 60.0 mg/kg/injection, schedule: Q01DX005 (ip), vehicle: saline with Tween-80
[5] = dose: 120.0 mg/kg/injection, schedule: Q01DX005 (ip), vehicle: saline with Tween-80

Measured: T/C

COC(=O)NN(C(=O)OC)C12CCCC1N(C(=O)OC)N(C(=O)OC)c1c2ccc2ccccc12 (stereo unspecified)
inactive: dose: 60.0 mg/kg/injection, schedule: Q01DX005 (ip), vehicle: Klucel (hydroxypropylcellulose) (HPC) 103 % of control | dose: 120.0 mg/kg/injection, schedule: Q01DX005 (ip), vehicle: Klucel (hydroxypropylcellulose) (HPC) 103 % of control | dose: 240.0 mg/kg/injection, schedule: Q01DX005 (ip), vehicle: Klucel (hydroxypropylcellulose) (HPC) 96 % of control

CC(C)CC1=C(C(=O)c2ccoc2)CC(C)C1 (stereo unspecified)
inactive: dose: 3.7 mg/kg/injection, schedule: Q01DX005 (ip), vehicle: Klucel (hydroxypropylcellulose) (HPC) 99 % of control | dose: 7.5 mg/kg/injection, schedule: Q01DX005 (ip), vehicle: Klucel (hydroxypropylcellulose) (HPC) 95 % of control | dose: 15.0 mg/kg/injection, schedule: Q01DX005 (ip), vehicle: Klucel (hydroxypropylcellulose) (HPC) 95 % of control

CC(C)=CCCC1(C)C=Cc2c(ccc3c(C)coc23)O1 (stereo unspecified)
inactive: [1] 97 % of control | [2] 100 % of control | [3] 100 % of control

O=C(NC1CCCCC1)ON1C(=O)C2C3C=CC(C3)C2C1=O (stereo unspecified)
inactive: dose: 3.12 mg/kg/injection, schedule: Q01DX009 (ip), vehicle: saline with Tween-80 101 % of control and 98 % of control | dose: 6.25 mg/kg/injection, schedule: Q01DX009 (ip), vehicle: saline with Tween-80 106 % of control and 110 % of control and 113 % of control | dose: 12.5 mg/kg/injection, schedule: Q01DX009 (ip), vehicle: saline with Tween-80 106 % of control and 110 % of control | dose: 25.0 mg/kg/injection, schedule: Q01DX009 (ip), vehicle: saline with Tween-80 113 % of control and 117 % of control and 98 % of control | dose: 50.0 mg/kg/injection, schedule: Q01DX009 (ip), vehicle: saline with Tween-80 119 % of control

CNS(=O)(=O)c1cc([N+](=O)[O-])c(N2CCCCC2)c([N+](=O)[O-])c1
inactive: dose: 50.0 mg/kg/injection, schedule: Q01DX009 (ip), vehicle: Klucel (hydroxypropylcellulose) (HPC) 100 % of control | dose: 100.0 mg/kg/injection, schedule: Q01DX009 (ip), vehicle: Klucel (hydroxypropylcellulose) (HPC) 100 % of control | dose: 200.0 mg/kg/injection, schedule: Q01DX009 (ip), vehicle: Klucel (hydroxypropylcellulose) (HPC) 99 % of control

c1ccc(C2(c3ccc(C4(c5ccccc5)Oc5ccccc5S4)[nH]3)Oc3ccccc3S2)cc1 (stereo unspecified)
inactive: [4] 96 % of control | [5] 107 % of control

CCCCn1cnc2c(=S)nc[nH]c21
inactive: [1] 94 % of control | [2] 105 % of control | [3] 102 % of control

CC(C)NC(=O)c1ccc(CN(O)Cc2ccc(C(=O)NC(C)C)cc2)cc1
inactive: dose: 25.0 mg/kg/injection, schedule: Q01DX009 (ip), vehicle: other 99 % of control | dose: 50.0 mg/kg/injection, schedule: Q01DX009 (ip), vehicle: other 99 % of control | dose: 100.0 mg/kg/injection, schedule: Q01DX009 (ip), vehicle: other 88 % of control | dose: 400.0 mg/kg/injection, schedule: Q01DX009 (ip), vehicle: other 97 % of control

CSc1ncc(/C(C)=N\N=C(N)N)c(C)n1
inactive: dose: 15.0 mg/kg/injection, schedule: Q01DX005 (ip), vehicle: saline 103 % of control and 97 % of control | dose: 30.0 mg/kg/injection, schedule: Q01DX005 (ip), vehicle: saline 93 % of control and 98 % of control | dose: 60.0 mg/kg/injection, schedule: Q01DX005 (ip), vehicle: saline 94 % of control and 97 % of control | dose: 120.0 mg/kg/injection, schedule: Q01DX005 (ip), vehicle: saline 99 % of control

O=C1C(Cl)=C(Nc2ccc3c(c2NC2=C(Cl)C(=O)c4ccccc4C2=O)C(=O)c2ccccc2C3=O)C(=O)c2ccccc21
inactive: dose: 50.0 mg/kg/injection, schedule: Q01DX005 (ip), vehicle: Klucel (hydroxypropylcellulose) (HPC) 97 % of control | dose: 100.0 mg/kg/injection, schedule: Q01DX005 (ip), vehicle: Klucel (hydroxypropylcellulose) (HPC) 99 % of control

CN(Cc1cnc2nc(N)[nH]c(=O)c2c1)c1ccc(C(=O)NC(CCC(=O)O)C(=O)O)cc1 (stereo unspecified)
inactive: [1] 98 % of control | [2] 100 % of control | [3] 111 % of control

O=C(c1ccccc1)c1cc(Cl)ccc1NCC(O)COc1ccc(Cl)cc1 (stereo unspecified)
inactive: [4] 93 % of control | [5] 89 % of control | dose: 240.0 mg/kg/injection, schedule: Q01DX005 (ip), vehicle: saline with Tween-80 88 % of control

COc1cc(NCCCCCNC(C)C)c2ncccc2c1
inactive: dose: 12.5 mg/kg/injection, schedule: Q01DX005 (ip), vehicle: saline with Tween-80 103 % of control | dose: 25.0 mg/kg/injection, schedule: Q01DX005 (ip), vehicle: saline with Tween-80 113 % of control | [1] 100 % of control
